“And” between values parts separate entries of the source, which are not always exact repeats. Identical values can stand only once. Like-named read-outs stand apart in the source and are kept apart here.

These results are taken from patent publication US6472152B1 (priority 1998, dated 2002).

In series [1] the test system is Salmonella typhimurium TA104 recN2-4.
Series [2] concerns TA104 recN2-4 and TA104 pr1 strain.
In series [3] the test system is Salmonella typhimurium TA104 pr1.
Series [4] has as its system Salmonella typhimurium TA104 recN2-4. As to conditions: van der Lelie et al, 1997; cited from earlier work.
The next series concerns SOS signal. As to conditions: normally; cited from earlier work.
The mark [5] stands for this setting: without S9-mix, maximal S/N, 60-240 min.
Where [6] appears, read: without S9-mix, ratio of maximal S/N values.
The mark [7] stands for this setting: without S9-mix, ratio of mean S/N values.
Setting [8] is: without S9-mix, within the dose-range tested.

`O=[N+]([O-])c1ccc2c(c1)Cc1cc([N+](=O)[O-])ccc1-2` [2,7Dinitrofluoreen]: the “concentration at which S/R > 2 (recN2 − 4)” value (“concentration … (recN2 − 4)” below) in series [1] was 0.62 ppm. Moreover, in series [2], the “concentration at which S/R's of rec/pri >1.5 MAX” value worked out at 0.62 ppm and the “concentration at which S/R's of rec/pri >1.5 MEAN” value is 0.62 ppm. Moreover, the “Toxic (pri)” value in series [3] was “−”.

With `Nc1ccc2c(c1)Cc1ccccc1-2` [2AF], in series [2], the “concentration at which S/R's of rec/pri >1.5 MAX” value worked out at 0.2 ppm and the “concentration at which S/R's of rec/pri >1.5 MEAN” value was 0.2 ppm.

For the molecule `O=[N+]([O-])c1ccc2c3c(cccc13)-c1ccccc1-2` [3-Nitrofluoranthene], the “concentration … (recN2 − 4)” value in series [1] (S9-mix +25 μl/ml) stood at 15.7 ppb; in series [1] (setting [5]) it was 15.7 ppb; in series [1] (without S9-mix, maximal S/N, 60-240 min, listed as 3Nitrofluoranthene) it was 0.032 ppm. In addition, the “concentration at which S/R's of rec/pri >1.5 MAX” value in series [2] (S9-mix +25 μl/ml) is 31.2 ppb; in series [2] (setting [6]), 31.3 ppb; in series [2] (without S9-mix, ratio of maximal S/N values, listed as 3Nitrofluoranthene) it was 0.064 ppm. Further, the “concentration at which S/R's of rec/pri >1.5 MEAN” value is reported as 15.7 ppb in series [2] (S9-mix +25 μl/ml); 15.7 ppb in series [2] (setting [7]); 0.032 ppm in series [2] (without S9-mix, ratio of mean S/N values, listed as 3Nitrofluoranthene).

With `Nc1ccc([N+](=O)[O-])cc1N` [4Nitro-o-Phenylenediamine], the “concentration … (recN2 − 4)” value in series [1] (S9-mix +25 μl/ml) stood at 12.5 ppm; in series [1] (setting [5]), 3.1 ppm. The “concentration at which S/R's of rec/pri >1.5 MAX” value is given as 12.5 ppm in series [2] (S9-mix +25 μl/ml) and 3.1 ppm in series [2] (setting [6]). The “concentration at which S/R's of rec/pri >1.5 MEAN” value in series [2] (S9-mix +25 μl/ml) came out at 12.5 ppm; in series [2] (setting [7]), 1.57 ppm.

Consider `COC(=O)N/N=C/c1c[n+]([O-])c2ccccc2[n+]1[O-]` [Carbadox], for which, in series [1] (setting [5]), the “concentration … (recN2 − 4)” value came to 0.08 ppm. Further, the “concentration at which S/R's of rec/pri >1.5 MAX” value in series [2] (setting [6]) is given as 0.08 ppm. Moreover, in series [2] (setting [7]), the “concentration at which S/R's of rec/pri >1.5 MEAN” value came to 0.04 ppm.

As for `c1ccc2c(c1)ccc1c3ccccc3ccc21` [Chrysene], in series [2] (S9-mix +100 μl/ml), the “concentration at which S/R's of rec/pri >1.5 MAX” value was 10 ppm and the “concentration at which S/R's of rec/pri >1.5 MEAN” value is 5 ppm.

As for `CCOS(C)(=O)=O` [EMS], in series [1] (setting [5]), the “concentration … (recN2 − 4)” value was 256 ppm. Also, the “concentration at which S/R's of rec/pri >1.5 MAX” value in series [2] (setting [6]) was found to be 256 ppm. Further, the “concentration at which S/R's of rec/pri >1.5 MEAN” value in series [2] (setting [7]) came to 256 ppm.

With `ClCC1CO1` (centres unmarked) [Epichlorohydrine], in series [1], the “S/N values in the recN2-4 strain” value was greater than 2. Also, the genotoxicity evaluation entry in series [2] is “genotoxic”. In series [3], the “S/N values in the pr1 strain” value is roughly 1 and the toxicity evaluation result is listed as “not toxic in the given dose-range”.

In the case of `c1ccc2c(c1)-c1cccc3cccc-2c13` [Fluoranthene], the “concentration … (recN2 − 4)” value in series [1] (Salmonella typhimurium) was 3.1 ppm. Further, in series [2] (Salmonella typhimurium), the “concentration at which S/R's of rec/pri >1.5 MAX” value turned out to be 3.1 ppm and the “concentration at which S/R's of rec/pri >1.5 MEAN” value is on record as 3.1 ppm. Besides, in series [3], the “Toxic (pri)” value is recorded as “−”.

With `O=C1OCCN1/N=C/c1ccc([N+](=O)[O-])o1` [Furazolidone], the “concentration at which S/R's of rec/pri >1.5 MAX” value in series [2] (Salmonella typhimurium) is recorded as 0.5 ppb.

For the molecule `COc1ccc2nc3cc(Cl)ccc3c(NCCCNCCCl)c2c1` [ICR 191 Acridine], in series [1], the “concentration … (recN2 − 4)” value stood at 0.62 ppm. In series [2], the “concentration at which S/R's of rec/pri >1.5 MAX” value came out at 1.25 ppm and the “concentration at which S/R's of rec/pri >1.5 MEAN” value is listed as 0.31 ppm. Moreover, the “Toxic (pri)” value in series [3] is given as “−”.

As for `CO[C@@]12[C@H](COC(N)=O)C3=C(C(=O)C(C)=C(N)C3=O)N1C[C@@H]1N[C@@H]12` [MMC], the “concentration at which S/R's of rec/pri >1.5 MEAN” value in series [2] (setting [7]) came to 15.6 ppb.

Consider `COS(C)(=O)=O` [MMS], for which the “concentration … (recN2 − 4)” value in series [1] (setting [5]) is 16 ppm and 8 ppm. In series [2] (setting [6]), the “concentration at which S/R's of rec/pri >1.5 MAX” value came out at 8 ppm. Further, in series [2] (setting [7]), the “concentration at which S/R's of rec/pri >1.5 MEAN” value stood at 8 ppm.

Turning to `CCN(CC)N=O` [N-Nitrosodiethylamine], in series [1] (S9-mix +25 μl/ml), the “concentration … (recN2 − 4)” value is given as 120 ppm. For the same molecule, in series [2] (S9-mix +25 μl/ml), the “concentration at which S/R's of rec/pri >1.5 MAX” value was 120 ppm and the “concentration at which S/R's of rec/pri >1.5 MEAN” value turned out to be 240 ppm.

Take `CCn1cc(C(=O)O)c(=O)c2ccc(C)nc21` [Nalidixic acid]: the “concentration … (recN2 − 4)” value in series [1] (setting [5]) is 0.16 ppm. The “concentration at which S/R's of rec/pri >1.5 MAX” value in series [2] (setting [6]) is given as 0.16 ppm. The “concentration at which S/R's of rec/pri >1.5 MEAN” value in series [2] (setting [7]) came out at 0.16 ppm. Further, the “Toxic (pri)” value in series [3] (setting [8]) is “+”.

Regarding `O=C(N/N=C/c1ccc([N+](=O)[O-])o1)c1ccc(O)cc1` [Nifuroxazide], the “effect at higher doses” value in series [2] is listed as “toxicity combined with genotoxicity”. For the same molecule, in series [3] (light production, without S9mix), the toxicity evaluation result is on record as “dose-dependent decrease in light production indicating toxicity”. In series [3] (pr1 strain, FIG. 4), the “doses not toxic (S/N curves for the pr1 strain)” value is “up to 0.16 ppm”. The “Toxic (pri)” value in series [3] (setting [8]) is recorded as “+”.

Turning to `c1ccc2c(c1)ccc1ccccc12` [Phenanthrene], the “concentration … (recN2 − 4)” value in series [1] (S9-mix +100 μl/ml) turned out to be 6.2 ppm. In series [2] (S9-mix +100 μl/ml), the “concentration at which S/R's of rec/pri >1.5 MAX” value is 6.2 ppm and the “concentration at which S/R's of rec/pri >1.5 MEAN” value stood at 6.2 ppm. The “Toxic (pri)” value in series [3] (S9-mix +100 μl/ml, within the dose-range tested) is “+”.

With `[N-]=[N+]=[N-]` [Sodium azide (NaN3), Sodium azide], the “S/N values in the recN2-4 strain” value in series [1] (Salmonella typhimurium) is listed as “greater than 2”. The genotoxicity evaluation entry in series [2] is “non-genotoxic”. Besides, the “Toxic (pri)” value in series [3] is recorded as “+”. Also, in series [3] (Salmonella typhimurium), the “S/N values in the pr1 strain” value is recorded as “greater than 2” and the “S/N, indications of toxicity obtained with time” value is less than 0.8. Further, the “response in the VITOTOX test with the recN2-4 strain alone, previously reported” value in series [4] was “positive”. In addition, in the series with SOS signal, the “score in the SOS chromotest” value is recorded as “negative”.

Consider `Nc1cccc2ccccc12` [a-Naphtylamine], for which, in series [2], the “concentration at which S/R's of rec/pri >1.5 MAX” value came to 2.5 ppm and the “concentration at which S/R's of rec/pri >1.5 MEAN” value was determined as 2.5 ppm.

With Coumermycine A1, the “Toxic (pri)” value in series [3] was “+”.
